Columns and labels:
C57BL/6J mice = test: CCl4 model of liver injury and fibrosis; format: in vivo, mouse
Description: LX-2 cells, a generous gift from Professor Scott Friedman, Mount Sinai School of Medicine, New York, N.Y., were cultured as described previously (Xu et al., 2005). […] For luciferase assays, DNA transfections were performed using Fugene 6 (Roche) following the manufacturer's instructions. […] RT-qPCR, total RNA was purified following TRIzol extraction and treated with DNaseI (Invitrogen). cDNA synthesis was carried out with iScript RT Supermix (Biorad). Quantitative PCR was performed in technical triplicates using SYBR Green reagent (Biorad). The relative standard curve method was used for quantitation (Biorad). Expression levels were calculated by normalization to either Gapdh (mouse) or U36B4 (human) quantities.
8 week-old male C57BL/6J mice were IP injected with 0.5 ml/kg body weight CCl4 (1:50 v/v in corn oil from Sigma) or vehicle (DMSO in corn oil) three times a week for 4 weeks. […] The animals were terminated 72 hours after the final CCl4 injection and whole livers and serum were collected for histological, cytological, biochemical and molecular analyses.
5 μm sections of formalin-fixed liver were stained following standard H&E and Sirius Red methods and reviewed by a pathologist who was blinded to the experimental conditions. Fibrosis was scored using the Ishak modified histological activity index (HAI) scoring system. Fibrosis was also quantified using Image J software on 10 non-contiguous Sirius Red stained sections. All images were obtained using a high-resolution Leica DFC420 digital camera mounted on an Olympus microscope equipped with ×4/0.13, ×10/0.30, ×20/0.50 and ×40/0.75 UplanFL N plan objective lenses and processed with the Leica Application Suite. Hepatic hydroxyproline content was measured using a commercial colorimetric assay from Biovision (K555-100).

SMAD3 = test: Immunoprecipitation/Western blot of total and phosphorylated SMAD3 in LX-2 cells; format: cell-based, human; details: TGFβ1 1 ng/ml +/- calcipotriol 100 nM
Description: Nuclear extracts were immunoprecipitated using a SMAD2/3 antibody prior to Western blot analysis. Asterisks denote non-specific bands.
The whole cell lysates were obtained through RIPA buffer lysis while isolation of nuclear extract was performed as previously reported (Ding et al., 2008). Total and nuclear SMAD3 were immunoprecipitated from LX-2 whole cell and nuclear extracts, respectively, using anti-SMAD2/3 antibody (Santa Cruz, sc-133098) followed by SDS-PAGE and western blot detection by anti-SMAD3 (Cell Signaling, 9523) and anti-pSMAD3 (Cell Signaling, 9520) specific antibodies.

[1] = test system: NCoR, SMRT, HDAC3, CoREST, LSD1, and G9a; test: ChIP-qPCR of corepressor recruitment at COL1A1 and COL1A2 regulatory regions in LX-2 cells; format: cell-based, human; details: calcipotriol 100 nM and TGFβ1 1 ng/ml
Description: FIGS. 12A-12B. Coactivator/Corepressor Recruitment and Histone H3 Acetylation Status at Regulatory Regions of Fibrotic Genes Co-occupied by VDR and SMAD. […] The level of occupancy is expressed relative to input chromatin in LX-2 cells treated with corresponding conditions. Data represents the mean+/−SEM of at least three independent experiments performed in triplicate. Asterisks denote statistically significant differences (Student's t test, *p<0.05). […] The level of occupancy is expressed relative to input chromatin in LX-2 cells treated with corresponding conditions.
Cells were then harvested for ChIP assay. The experimental procedure for ChIP was as previously described (Barish et al., 2010). Briefly, after fixation, nuclei from LX-2 cells were isolated, lysed and sheared with a Diagenode Bioruptor to yield DNA fragment sizes of 200-1000 base pairs followed by immunoprecipitation using antibodies listed below: normal rabbit IgG (Santa Cruz, sc-2027), VDR (Santa Cruz, sc-1008), SMAD3 (Abcam, ab28379) and histone H3 (Abcam, ab1791). For ChIP-Re-ChIP, after first ChIP, the immunoprecipitated DNA-protein complex was eluted from beads using 10 mM DTT, diluted 100-fold then re-immunoprecipitated with a second antibody, re-ChIP.

SMILES: C=C1/C(=C\C=C2/CCC[C@]3(C)[C@@H]([C@H](C)/C=C/[C@@H](O)C4CC4)CC[C@@H]23)C[C@@H](O)C[C@@H]1O [calcipotriol, 1α,24-(OH)2-24-cyclopropyl-D3]
- fibrosis (Sirius red staining, hepatic hydroxyproline content, histological fibrotic scoring) (C57BL/6J mice; CCl4 0.5 ml/kg IP 3 times per week, 4 weeks, calcipotriol 20 μg/kg oral gavage co-treatment): significant reduction in fibrosis
- serum calcium concentration (C57BL/6J mice; calcipotriol 20 μg/kg oral gavage, 4 weeks): not significantly altered
- down-regulation of fibrotic marker genes Col1a1, Tgfb1 and Timp1 (C57BL/6J mice; hepatic gene expression, RT-qPCR, CCl4/calcipotriol co-treated vs CCl4): 50-70%
- fibrogenic response in liver (C57BL/6J mice; pre-treated with calcipotriol for 5 weeks prior to CCl4/calcipotriol co-treatment): nearly completely abrogated
- TGFβ1-induced phosphorylation and subsequent nuclear translocation of SMAD3 (SMAD3): did not significantly affect
- altered binding of corepressors to VDR/SMAD3 co-occupied regulatory regions [1]: not detected
